Test results taken from patent US8148391B2 (Cephalon, Inc., priority 2006, dated 2012).
Read-outs that look alike come from different tables or passages of the source.

Assays:
[1] = target: T1, baculovirus-expressed ALK (Homo sapiens, UniProt Q9UM73); test: ALK Kinase Assay (ELISA-type, time-resolved fluorescence); type: biochemical
T1 construct: host or cells: baculovirus expression system
Procedure, shortened: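 Substrate coating: phospholipase C-γ, 10 μg/mL in TBS. Kinase step: 30 ng/ml ALK, 15 min, 37° C. Detection and analysis: Eu-N1 PT66 antibody, with IC50 fitted as a sigmoidal variable-slope dose-response curve.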

[2] = target: T2, c-Met (cytoplasmic domain) (Homo sapiens, UniProt P08581); test: c-Met Kinase Assay (same methods as for ALK, with modifications); type: biochemical
T2 construct: 10 ng/mL c-Met (cytoplasmic domain, Invitrogen Corporation #PV3143); purchased Invitrogen Corporation PV3143
T2 sequence (P08581 956-1390 limits assumed): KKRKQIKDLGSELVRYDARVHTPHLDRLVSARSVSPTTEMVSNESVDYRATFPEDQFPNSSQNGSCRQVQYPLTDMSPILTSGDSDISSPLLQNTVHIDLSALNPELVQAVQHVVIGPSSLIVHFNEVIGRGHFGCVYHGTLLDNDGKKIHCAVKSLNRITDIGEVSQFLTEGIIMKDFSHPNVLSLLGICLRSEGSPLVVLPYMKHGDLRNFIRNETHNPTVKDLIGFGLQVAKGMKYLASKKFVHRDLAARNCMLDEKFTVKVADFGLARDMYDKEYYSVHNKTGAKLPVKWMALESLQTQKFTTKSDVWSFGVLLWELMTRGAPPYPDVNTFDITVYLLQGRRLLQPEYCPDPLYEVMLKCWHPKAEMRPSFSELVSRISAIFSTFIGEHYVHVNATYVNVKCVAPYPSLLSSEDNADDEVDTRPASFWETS
Procedure, shortened: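 Wells were coated with 10 μg/mL phospholipase C-γ substrate in TBS, and reactions were started with 10 ng/mL c-Met cytoplasmic domain and run at 37° C for 15 minutes. Phosphorylated product was detected with Eu-N1-labeled PT66 antibody. IC50 values came from sigmoidal variable-slope fits of percent inhibition versus log compound concentration.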

[3] = ALK kinase inhibition, 1 μM ATP, read-out: ALK Activity
[4] = c-Met kinase inhibition, 1 μM ATP, read-out: cMet Activity
[5] = 1 μM ATP (Km level), 30 ng/ml ALK, 37° C., 15 minutes, read-out: ALK Activity (ALK kinase inhibition, IC50 class)
[6] = 1 μM ATP (Km level), 10 ng/mL c-Met, read-out: cMet Activity (c-Met kinase inhibition, IC50 class)
[7] = ALK kinase inhibition, 1 μM ATP (Km level), read-out: ALK Activity
[8] = c-Met kinase inhibition, 1 μM ATP (Km level), read-out: cMet Activity
[9] = 1 μM ATP (Km level), read-out: ALK Activity (ALK Kinase Inhibition, IC50)
[10] = 1 μM ATP (Km level), read-out: cMet Activity (c-Met Kinase Inhibition, IC50)

T1 sequence (Q9UM73 19-1620): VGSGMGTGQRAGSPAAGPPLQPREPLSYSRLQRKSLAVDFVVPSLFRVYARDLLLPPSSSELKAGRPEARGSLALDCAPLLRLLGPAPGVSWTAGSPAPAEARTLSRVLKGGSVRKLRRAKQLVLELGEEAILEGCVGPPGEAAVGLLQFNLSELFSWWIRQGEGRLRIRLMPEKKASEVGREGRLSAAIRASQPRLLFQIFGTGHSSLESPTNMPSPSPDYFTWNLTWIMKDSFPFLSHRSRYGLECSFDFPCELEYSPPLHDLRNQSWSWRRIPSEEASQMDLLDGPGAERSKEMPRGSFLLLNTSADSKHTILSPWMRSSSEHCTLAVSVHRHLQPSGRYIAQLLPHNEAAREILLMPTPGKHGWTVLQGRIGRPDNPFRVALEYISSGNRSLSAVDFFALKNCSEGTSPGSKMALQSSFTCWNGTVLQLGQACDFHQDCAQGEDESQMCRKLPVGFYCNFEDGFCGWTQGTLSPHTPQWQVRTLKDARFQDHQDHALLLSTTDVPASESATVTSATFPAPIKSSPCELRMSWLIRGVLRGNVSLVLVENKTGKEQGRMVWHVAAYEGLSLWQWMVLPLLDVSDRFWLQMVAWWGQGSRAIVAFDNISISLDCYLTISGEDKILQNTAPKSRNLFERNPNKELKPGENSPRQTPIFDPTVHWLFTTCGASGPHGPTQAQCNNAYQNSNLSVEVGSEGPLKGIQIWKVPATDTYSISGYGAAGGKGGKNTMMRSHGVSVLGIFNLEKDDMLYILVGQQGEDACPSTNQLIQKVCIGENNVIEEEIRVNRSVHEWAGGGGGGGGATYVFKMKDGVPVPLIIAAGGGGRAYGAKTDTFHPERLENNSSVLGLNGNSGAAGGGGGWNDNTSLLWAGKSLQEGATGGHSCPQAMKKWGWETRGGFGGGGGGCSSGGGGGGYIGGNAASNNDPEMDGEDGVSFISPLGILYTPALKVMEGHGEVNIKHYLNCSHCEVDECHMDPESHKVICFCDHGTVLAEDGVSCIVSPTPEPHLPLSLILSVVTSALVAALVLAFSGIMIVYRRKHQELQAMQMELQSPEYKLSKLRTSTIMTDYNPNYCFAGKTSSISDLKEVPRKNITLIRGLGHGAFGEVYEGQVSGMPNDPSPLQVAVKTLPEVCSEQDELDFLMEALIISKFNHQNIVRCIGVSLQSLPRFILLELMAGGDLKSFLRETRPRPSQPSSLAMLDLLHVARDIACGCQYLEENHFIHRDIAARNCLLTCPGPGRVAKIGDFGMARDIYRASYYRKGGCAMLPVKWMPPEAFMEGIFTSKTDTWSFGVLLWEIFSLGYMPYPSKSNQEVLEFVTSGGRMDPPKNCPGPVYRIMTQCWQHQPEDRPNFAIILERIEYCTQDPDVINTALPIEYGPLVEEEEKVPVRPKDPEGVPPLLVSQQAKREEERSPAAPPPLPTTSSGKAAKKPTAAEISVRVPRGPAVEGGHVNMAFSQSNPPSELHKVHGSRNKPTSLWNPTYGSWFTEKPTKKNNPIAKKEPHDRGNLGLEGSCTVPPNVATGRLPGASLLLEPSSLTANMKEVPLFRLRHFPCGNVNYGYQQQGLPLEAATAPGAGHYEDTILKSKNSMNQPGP

C#CCNC(=O)c1cccc(F)c1Nc1nc(Nc2ccc3c(c2)N(C(=O)CN2CCCC2)CCCC3(C)C)ncc1Cl [Example 1604, 2-{5-Chloro-2-[5,5-dimethyl-1-(2-pyrrolidin-1-yl-acetyl)-2,3,4,5-tetrahydro-1H-benzo[b]azepin-8-ylamino]-pyrimidin-4-ylamino}-3-fluoro-N-prop-2-ynyl-benzamide]
IC50 [1, 3]: 100 to 1000 nM | IC50 [2, 4]: 100 to 1000 nM

COCCN1CCc2ccc(Nc3ncc(Cl)c(Nc4ccccc4Cl)n3)cc2CC1 [Example 1376, 5-Chloro-N(4)-(2-chloro-phenyl)-N(2)-[3-(2-methoxy-ethyl)-2,3,4,5-tetrahydro-1H-benzo[d]azepin-7-yl]-pyrimidine-2,4-diamine]
IC50 [1, 5]: < 100 nM | IC50 [2, 6]: 100 to 1000 nM

COCCN1CCc2ccc(Nc3ncc(Cl)c(NCCNS(C)(=O)=O)n3)cc2CC1 [Example 299, N-(2-{5-Chloro-2-[3-(2-methoxy-ethyl)-2,3,4,5-tetrahydro-1H-benzo[d]azepin-7-ylamino]-pyrimidin-4-ylamino}-ethyl)-methanesulfonamide]
IC50 [1, 7]: 100 to 1000 nM | IC50 [2, 8]: 1000 to 10000 nM

CCN1CCc2cc(Nc3ncc(Cl)c(Nc4ccc(N5CCN(C)CC5)cc4OC)n3)c(OC)cc2CC1=O [Example 772, 7-{5-Chloro-4-[2-methoxy-4-(4-methyl-piperazin-1-yl)-phenylamino]-pyrimidin-2-ylamino}-3-ethyl-8-methoxy-1,3,4,5-tetrahydro-benzo[d]azepin-2-one]
IC50 [1, 9]: < 100 nM | IC50 [2, 10]: > 10000 nM

CNC(=O)c1cccc(C)c1Nc1nc(Nc2ccc3c(c2)CCOC(=O)N3C)ncc1Cl [Example 1744, 2-[5-Chloro-2-(5-methyl-6-oxo-5,6,8,9-tetrahydro-7-oxa-5-aza-benzocyclohepten-2-ylamino)-pyrimidin-4-ylamino]-3,N-dimethyl-benzamide]
IC50 [1, 3]: 1000 to 10000 nM | IC50 [2, 4]: < 100 nM

COc1cc2c(cc1Nc1ncc(Cl)c(N[C@H]3[C@@H](C(N)=O)[C@@H]4C=C[C@H]3C4)n1)CCN(CCS(C)(=O)=O)CC2 [Example 1128, (1S,2S,3R,4R)-3-{5-Chloro-2-[3-(2-methanesulfonyl-ethyl)-8-methoxy-2,3,4,5-tetrahydro-1H-benzo[d]azepin-7-ylamino]-pyrimidin-4-ylamino}-bicyclo[2.2.1]hept-5-ene-2-carboxylic acid amide]
IC50 [1, 5]: < 100 nM | IC50 [2, 6]: > 10000 nM

CNC(=O)c1ccccc1Nc1nc(Nc2ccc3c(c2)NC(=O)CCC3)ncc1Cl [Example 513, 2-[5-Chloro-2-(2-oxo-2,3,4,5-tetrahydro-1H-benzo[b]azepin-8-ylamino)-pyrimidin-4-ylamino]-N-methyl benzamide]
IC50 [1, 9]: < 100 nM | IC50 [2, 10]: < 100 nM

CCN1CCc2ccc(Nc3ncc(Cl)c(N[C@H]4CCCC[C@@H]4C(N)=O)n3)cc2CC1 [Example 1502, (1S,2S)-2-[5-Chloro-2-(3-ethyl-2,3,4,5-tetrahydro-1H-enzo[d]azepin-7-ylamino)-pyrimidin-4-ylamino]-cyclohexanecarboxylic acid amide]
IC50 [1, 3]: 100 to 1000 nM | IC50 [2, 4]: > 10000 nM

COc1cc2c(cc1Nc1ncc(Cl)c(Nc3ccccc3S(=O)(=O)N(C)C)n1)CCN(CC(=O)N1CCOCC1)CC2 [Example 1525, 2-{5-Chloro-2-[8-methoxy-3-(2-morpholin-4-yl-2-oxo-ethyl)-2,3,4,5-tetrahydro-1H-3-benzazepin-7-ylamino]-pyrimidin-4-ylamino}-N,N-dimethyl-benzenesulfonamide]
IC50 [1, 3]: < 100 nM | IC50 [2, 4]: > 10000 nM

COc1ccc(Nc2nc(Nc3cc4c(cc3OC)CCN(CC(=O)N(C)C)CC4)ncc2Cl)c(OC)n1 [Example 1200, 2-{7-[5-Chloro-4-(2,6-dimethoxy-pyridin-3-ylamino)-pyrimidin-2-ylamino]-8-methoxy-1,2,4,5-tetrahydro-benzo[d]azepin-3-yl}-N,N-dimethyl-acetamide]
IC50 [1, 5]: < 100 nM | IC50 [2, 6]: 1000 to 10000 nM

CNC(=O)c1ccccc1Nc1nc(Nc2ccc3c(c2)CN(CCOC(C)=O)CCS3)ncc1Cl [Example 527, Acetic acid 2-{2-[5-Chloro-4-(2-methylcarbamoyl-phenylamino)-pyrimidin-2-ylamino]-6,7-dihydro-9H-5-thia-8-aza-benzoylcyclohepten-8-yl}-ethyl ester]
IC50 [1, 9]: < 100 nM | IC50 [2, 10]: < 100 nM

C#CCNC(=O)c1sccc1Nc1nc(Nc2ccc3c(c2)NC(=O)CCC3(C)C)ncc1Cl [Example 1623, 3-[5-Chloro-2-(5,5-dimethyl-2-oxo-2,3,4,5-tetrahydro-1H-benzo[b]azepin-8-ylamino)-pyrimidin-4-ylamino]-thiophene-2-carboxylic acid prop-2-ynylamide]
IC50 [1, 3]: 100 to 1000 nM | IC50 [2, 4]: > 10000 nM

CCN1CCc2ccc(Nc3ncc(Cl)c(Nc4ccccc4C(=O)NC)n3)c(OC)c2CC1 [Example 234, 2-[5-Chloro-2-(3-ethyl-6-methoxy-2,3,4,5-tetrahydro-1H-benzo[d]azepin-7-ylamino)-pyrimidin-4-ylamino]-N-methyl-benzamide]
IC50 [1, 7]: < 100 nM | IC50 [2, 8]: > 10000 nM

CNC(=O)c1cccc(F)c1Nc1nc(Nc2ccc3c(c2)N(C(=O)N2CCCC2)CCCC3(C)C)ncc1Cl [Example 1620, 2-{5-Chloro-2-[5,5-dimethyl-1-(pyrrolidine-1-carbonyl)-2,3,4,5-tetrahydro-1H-benzo[b]azepin-8-ylamino]-pyrimidin-4-ylamino}-3-fluoro-N-methyl-benzamide]
IC50 [1, 3]: 100 to 1000 nM | IC50 [2, 4]: 100 to 1000 nM

O=C1CCCc2ccc(Nc3ncc(Cl)c(Nc4ccccc4OCCN4CCOCC4)n3)cc2N1 [Example 1465, 8-{5-Chloro-4-[2-(2-morpholin-4-yl-ethoxy)-phenylamino]-pyrimidin-2-ylamino}-1,3,4,5-tetrahydro-benzo[b]azepin-2-one]
IC50 [1, 3]: > 10000 nM | IC50 [2, 4]: > 10000 nM

CCN1CCN(CC)c2cc(Nc3ncc(Cl)c(Nc4ccc(N5CCOCC5)cc4OC)n3)ccc2C1 [Example 712, 5-Chloro-N*2*-(1,4-diethyl-2,3,4,5-tetrahydro-1H-benzo[e][1,4]diazepin-8-yl)-N*4*-(2-methoxy-4-morpholin-4-yl-phenyl)-pyrimidin-2,4-diamine]
IC50 [1, 9]: < 100 nM | IC50 [2, 10]: 1000 to 10000 nM

COCCOc1ccc(Nc2nc(Nc3cc4c(cc3OC)CCN(Cc3ncco3)CC4)ncc2Cl)c(OC)c1 [Example 1174, 5-Chloro-N*4*-[2-methoxy-4-(2-methoxy-ethoxy)-phenyl]-N*2*-(8-methoxy-3-oxazol-2-ylmethyl-2,3,4,5-tetrahydro-1H-benzo[d]azepin-7-yl)-pyrimidine-2,4-diamine]
IC50 [1, 5]: < 100 nM | IC50 [2, 6]: > 10000 nM

CNC(=O)c1cccc(F)c1Nc1nc(Nc2ccc3c(c2)NC(=O)C(N2CCOCC2)CC3)ncc1Cl (stereo not drawn) [Example 1491, 2-[5-Chloro-2-(3-morpholin-4-yl-2-oxo-2,3,4,5-tetrahydro-1H-benzo[b]azepin-8-ylamino)-pyrimidin-4-ylamino]-3-fluoro-N-methyl-benzamide]
IC50 [1, 3]: < 100 nM | IC50 [2, 4]: < 100 nM

COc1cc2c(cc1Nc1ncc(Cl)c(Nc3ccccc3S(=O)(=O)N3CCC(O)C3)n1)CCN(CC(=O)N(C)C)CC2 (stereo not drawn) [Example 1188, 2-(7-{5-Chloro-4-[2-(3-hydroxy-pyrrolidine-1-sulfonyl)-phenylamino]-pyrimidin-2-ylamino}-8-methoxy-1,2,4,5-tetrahydro-benzo[d]azepin-3-yl)-N,N-dimethyl-acetamide]
IC50 [1, 5]: < 100 nM | IC50 [2, 6]: 1000 to 10000 nM

COCCN1CCc2ccc(Nc3ncc(Cl)c(N[C@@H]4CCCC[C@H]4N)n3)cc2CC1 [Example 451, N*4*-((1R,2R)-2-Amino-cyclohexyl)-5-chloro-N*2*-[3-(2-methoxy-ethyl)-2,3,4,5-tetrahydro-1H-benzo[d]azepin-7-yl]-pyrimidine-2,4-diamine]
IC50 [1, 7]: 100 to 1000 nM | IC50 [2, 8]: 1000 to 10000 nM

CNC(=O)c1scc(C)c1Nc1nc(Nc2ccc3c(c2)NC(=O)CN(C)C3)ncc1Cl [Example 1868, 3-[5-Chloro-2-(4-methyl-2-oxo-2,3,4,5-tetrahydro-1H-benzo[e][1,4]diazepin-8-ylamino)-pyrimidin-4-ylamino]-4-methyl-thiophene-2-carboxylic acid methylamide]
IC50 [1, 3]: 100 to 1000 nM | IC50 [2, 4]: < 100 nM

COc1cccnc1-c1ccccc1Nc1nc(Nc2ccc3c(c2)C(C)(C)CCC(=O)N3)ncc1Cl [Example 989, 7-{5-Chloro-4-[2-(3-methoxy-pyridin-2-yl)-phenylamino]-pyrimidin-2-ylamino}-5,5-dimethyl-1,3,4,5-tetrahydro-benzo[b]azepin-2-one]
IC50 [1, 9]: < 100 nM | IC50 [2, 10]: 100 to 1000 nM

CCN1C(=O)CN(CC(=O)N(C)C)Cc2cc(OC)c(Nc3ncc(Cl)c(Nc4ccc(N5CCOCC5)cc4OC)n3)cc21 [Example 727, 2-{8-[5-Chloro-4-(2-methoxy-4-morpholin-4-yl-phenylamino)-pyrimidin-2-ylamino]-1-ethyl-7-methoxy-2-oxo-1,2,3,5-tetrahydro-benzo[e][1,4]diazepin-4-yl}-N,N-dimethyl-acetamide]
IC50 [1, 9]: 100 to 1000 nM | IC50 [2, 10]: > 10000 nM

CN1C(=O)CCCc2cc(Nc3ncc(Cl)c(Nc4ccc(N5CCCCC5)cc4C(N)=O)n3)ccc21 [Example 354, 2-[5-Chloro-2-(1-methyl-2-oxo-2,3,4,5-tetrahydro-1H-benzo[b]azepin-7-ylamino)-pyrimidin-4-ylamino]-5-piperidin-1-yl-benzamide]
IC50 [1, 7]: < 100 nM | IC50 [2, 8]: < 100 nM
